Our source for the Activity, Stability and hemolysis values is ChEMBL document CHEMBL3808389, “Stable and biocompatible cystine knot peptides from the marine sponge Asteropus sp” (Bioorg Med Chem, 2016).

Where a SMILES comes first, the peptide text is derived from it. Bridges are numbered along the chain shown (N, C = ends). [ ]: non-standard residue; d: D form. ξ: configuration not given here. ξpGlu = O=C1CCC(C(=O)O)N1

A short description of data set [1]: Toxicity in human RBC assessed as hemolytic activity at 50 uM measured after 1 hr by spectrophotometric analysis. Type of data set: cell-based, Erythrocyte. Conditions: for Activity: erythrocyte, 1 h, 50 µM.
The nature of data set [2]: Thermal stability in Tris-acetate-EDTA buffer of pH 8.3 at 100 degC measured upto 12 hrs by reverse-phase HPLC analysis. Type of data set: physicochemical. Particulars: pH 8.3, 12 h.
Data set [3] in a line: Toxicity in Thamnaconus modestus RBC assessed as hemolytic activity at 0.08 to 50 uM measured after 1 hr by spectrophotometric analysis. Type of data set: cell-based. Conditions: erythrocyte.
Data set [4] relates to RAW264.7. Description: Cytotoxicity against mouse RAW264.7 cells assessed as cell viability at 10 or 40 ug/ml measured after 24 hrs by WST assay. Particulars: raw264.7, 24 h. Type of data set: cell-based.
Data set [5] relates to RAW264.7. Description: Toxicity in mouse RAW264.7 cells assessed as in induction of Nitric oxide production at 10 or 40 ug/ml measured after 24 hrs by Griess reaction method. Type of data set: cell-based. Conditions: raw264.7, 24 h. For orientation: The Griess reaction detects nitrite, a stable product of nitric oxide.
Data set [6] in a line: Thermal stability of the compound in phosphate buffer of pH 7.4 at 50 ug at 100 degC assessed as conformation changes by measuring changes in short wavelength region (195 nanometer) by CD analysis. Type of data set: physicochemical.
Data set [7] in a line: Cytotoxicity against rat Ac2F cells at 30 uM. Type of data set: cell-based.
Data set [8] is described as follows: Chemical stability assessed as elastase (unknown origin)-mediated degradation in simulated human intestinal fluid at 37 degC measured up to 12 hrs by reverse-phase HPLC analysis. Type of data set: ADME, physicochemical. Particulars: simulated gi fluid.
A short description of data set [9]: Thermal stability of the compound in phosphate buffer of pH 7.4 at 50 ug at 25 degC by CD analysis. Type of data set: physicochemical.
Data set [10] is described as follows: Chemical stability assessed as pepsin (unknown origin)-mediated degradation in simulated human intestinal fluid at 37 degC measured up to 12 hrs by reverse-phase HPLC analysis. Type of data set: ADME, physicochemical. Conditions: simulated gi fluid.
Data set [11] is described as follows: Chemical stability assessed as trypsin (unknown origin)-mediated degradation in simulated human intestinal fluid at 37 degC measured up to 12 hrs by reverse-phase HPLC analysis. Type of data set: ADME, physicochemical. Conditions: simulated gi fluid.
Data set [12] relates to Plasma. Description: Metabolic stability in human plasma at 37 degC measured upto 12 hrs by reverse-phase HPLC analysis. Type of data set: ADME, cell-free.
Data set [13] in a line: Chemical stability assessed as chymotrypsin (unknown origin)-mediated degradation in simulated human intestinal fluid at 37 degC measured up to 12 hrs by reverse-phase HPLC analysis. Type of data set: ADME, physicochemical. Particulars: simulated gi fluid.

Consider `CC[C@H](C)[C@H](NC(=O)[C@@H](NC(=O)[C@H](Cc1ccc(O)cc1)NC(=O)[C@@H]1CSSC[C@@H]2NC(=O)[C@@H]3CCCN3C(=O)[C@H](CC(N)=O)NC(=O)[C@H](Cc3ccccc3)NC(=O)[C@H](CCC(=O)O)NC(=O)[C@H](C(C)C)NC(=O)[C@H](CC(=O)O)NC(=O)[C@@H]3CSSC[C@H](NC(=O)[C@H]([C@H](C)O)NC(=O)[C@H](CC(C)C)NC(=O)[C@@H]4CCCN4C(=O)[C@@H]4CCCN4C(=O)[C@H](CSSC[C@H](N)C(=O)N4CCC[C@H]4C(=O)NCC(=O)N[C@@H](CCC(=O)O)C(=O)NCC(=O)N[C@@H](CCC(=O)O)C(=O)N[C@@H](CCC(N)=O)C(=O)N3)NC2=O)C(=O)N[C@@H]([C@@H](C)CC)C(=O)N2CCC[C@H]2C(=O)NCC(=O)N[C@@H](CC(=O)O)C(=O)N2CCC[C@H]2C(=O)N[C@@H](Cc2ccc(O)cc2)C(=O)NCC(=O)N[C@@H]([C@@H](C)CC)C(=O)N1)[C@@H](C)CC)C(=O)O`, for which the Activity entry in data set [1], in data set [3], in [4] and in data set [5] was “Non-toxic” throughout. Also, in data set [2], the Stability entry is reported as “Stable”.
Turning to `CC(C)C[C@@H]1NC(=O)CNC(=O)[C@H](CC(N)=O)NC(=O)[C@H](CCCNC(=N)N)NC(=O)[C@H]([C@@H](C)O)NC(=O)[C@@H]2CSSC[C@@H]3NC(=O)[C@H]([C@@H](C)O)NC(=O)CNC(=O)CNC(=O)[C@H](C(C)C)NC(=O)[C@@H]4CSSC[C@H](NC(=O)[C@H]([C@@H](C)O)NC(=O)[C@H](CSSC[C@H](NC(=O)[C@H](C(C)C)NC(=O)[C@@H]5CCCN5C1=O)C(=O)NCC(=O)N[C@@H](CCC(=O)O)C(=O)N[C@@H]([C@@H](C)O)C(=O)N4)NC(=O)CNC(=O)[C@@H]1CCCN1C(=O)[C@H]([C@@H](C)O)NC(=O)[C@H](CC(N)=O)NC3=O)C(=O)N[C@@H](CO)C(=O)N[C@@H](Cc1c[nH]c3ccccc13)C(=O)N1CCC[C@H]1C(=O)N[C@@H](C(C)C)C(=O)N2`, the hemolysis at 1 h, 50 µM in data set [1] (red blood cells, read-out: Activity) worked out at 74%. Besides, the Stability entry in data set [2] is recorded as “Stable”.
Turning to `CC[C@H](C)[C@H](NC(=O)[C@@H](NC(=O)[C@H](Cc1ccc(O)cc1)NC(=O)[C@@H]1CSSC[C@@H]2NC(=O)[C@@H]3CCCN3C(=O)[C@H](CC(N)=O)NC(=O)[C@H](Cc3ccccc3)NC(=O)[C@H](CCC(=O)O)NC(=O)[C@H](C(C)C)NC(=O)[C@H](CC(=O)O)NC(=O)[C@@H]3CSSC[C@H](NC(=O)[C@H]([C@@H](C)O)NC(=O)[C@H](CC(C)C)NC(=O)[C@@H]4CCCN4C(=O)[C@@H]4CCCN4C(=O)[C@H](CSSC[C@H](N)C(=O)N4CCC[C@H]4C(=O)NCC(=O)N[C@@H](CCC(=O)O)C(=O)NCC(=O)N[C@@H](CCC(=O)O)C(=O)N[C@@H](CCC(=O)O)C(=O)N3)NC2=O)C(=O)N[C@@H]([C@@H](C)CC)C(=O)N2CCC[C@H]2C(=O)NCC(=O)N[C@@H](CC(=O)O)C(=O)N2CCC[C@H]2C(=O)N[C@@H](Cc2ccc(O)cc2)C(=O)NCC(=O)N[C@@H]([C@@H](C)CC)C(=O)N1)[C@@H](C)CC)C(=O)O` (H-CPGEGEECDVEFNPCCPPLTCIPGDPYGICYII-OH; disulfide 1-16, 8-21, 15-30), the Activity entry in data set [1], in data set [7], in data set [3], in [4] and in data set [5] was “Non-toxic” in each case. The Stability result in [6] is recorded as “Unstable”; in data set [2], “Stable”; in data set [8], “Stable”; in [9], “Stable”; in [10], “Stable”; in [11], “Stable”. For the same compound, the Stability entry in data set [12] and in data set [13] was “Stable” in each case.
Regarding `CC[C@H](C)[C@@H]1NC(=O)[C@@H]2CSSC[C@@H]3NC(=O)[C@H](CO)NC(=O)[C@H](CCC(=O)O)NC(=O)CNC(=O)[C@H](CCC(=O)O)NC(=O)[C@H](Cc4ccccc4)NC(=O)[C@H](C)NC(=O)[C@@H](NC(=O)CNC(=O)C4CCC(=O)N4)CSSC[C@H](NC(=O)[C@H](CSSC[C@@H](C(=O)N[C@@H](Cc4ccc(O)cc4)C(=O)N[C@@H](Cc4ccc(O)cc4)C(=O)N[C@@H](CC(C)C)C(=O)O)NC(=O)[C@H]([C@@H](C)O)NC(=O)CNC(=O)[C@H](CC(=O)O)NC(=O)[C@@H]4CCCN4C(=O)[C@H](CC(N)=O)NC(=O)CNC(=O)[C@@H]4CCCN4C1=O)NC(=O)[C@@H]1CCCN1C(=O)[C@H](Cc1ccc(O)cc1)NC(=O)[C@H](Cc1ccccc1)NC(=O)[C@H](CCC(=O)O)NC(=O)[C@H](C(C)C)NC(=O)[C@H](CC(N)=O)NC3=O)C(=O)N1CCC[C@H]1C(=O)NCC(=O)N[C@@H](CC(C)C)C(=O)NCC(=O)N[C@@H](CC(C)C)C(=O)N[C@@H]([C@@H](C)O)C(=O)N2` (stereo not given in full) ([ξpGlu]GCAFEGESCNVEFYPCCPGLGLTCIPGNPDGTCYYL-OH; disulfide 3-18, 10-25, 17-34), the Activity result in data set [1] and in data set [3] was “Non-toxic” in each case.
Regarding `CC[C@H](C)[C@@H]1NC(=O)CNC(=O)CNC(=O)[C@@H]2CCCN2C(=O)[C@H](CC(=O)O)NC(=O)CNC(=O)[C@@H]2CCCN2C(=O)[C@H](Cc2ccc(O)cc2)NC(=O)[C@@H]2CSSC[C@@H]3NC(=O)[C@H](CCC(=O)O)NC(=O)[C@H](CCC(=O)O)NC(=O)CNC(=O)[C@@H]4CCCN4C(=O)CNC(=O)[C@H](C)NC(=O)[C@@H](NC(=O)CNC(=O)C4CCC(=O)N4)CSSC[C@H](NC(=O)[C@H](CSSC[C@@H](C(=O)N[C@@H](Cc4ccc(O)cc4)C(=O)O)NC1=O)NC(=O)[C@H](CC(=O)O)NC(=O)[C@H](Cc1ccc(O)cc1)NC(=O)[C@H](Cc1ccccc1)NC(=O)CNC(=O)[C@H](C(C)C)NC(=O)[C@H]([C@@H](C)CC)NC3=O)C(=O)N1CCC[C@H]1C(=O)NCC(=O)N[C@@H](Cc1ccc(O)cc1)C(=O)N[C@@H](CCCNC(=N)N)C(=O)N2` (stereo not given in full) ([ξpGlu]GCAGPGEECIVGFYDCCPGYRCYPGDPGGICY-OH; disulfide 3-18, 10-23, 17-32), the Activity entry in [1], in data set [3], in data set [4] and in data set [5] was “Non-toxic” in each case.
On to `CC[C@H](C)[C@@H]1NC(=O)[C@H](CC(C)C)NC(=O)CNC(=O)[C@H](CC(=O)O)NC(=O)[C@@H]2CSSC[C@H](NC(=O)[C@H](Cc3c[nH]c4ccccc34)NC(=O)C3CCC(=O)N3)C(=O)N[C@@H](C)C(=O)N[C@@H](CCC(=O)O)C(=O)N[C@@H](CCC(=O)O)C(=O)NCC(=O)N[C@@H](CCC(=O)O)C(=O)N[C@@H](CO)C(=O)N[C@H]3CSSC[C@H](NC1=O)C(=O)N[C@@H](Cc1ccc(O)cc1)C(=O)N1CCC[C@H]1C(=O)N[C@@H]([C@@H](C)O)C(=O)N[C@@H](Cc1ccccc1)C(=O)N1CCC[C@H]1C(=O)N[C@@H](CCC(=O)O)C(=O)N1CCC[C@H]1C(=O)N[C@@H]([C@@H](C)CC)C(=O)N[C@H](C(=O)NCC(=O)N[C@H](C(=O)O)C(C)C)CSSC[C@H](NC(=O)[C@@H]1CCCN1C(=O)[C@H](Cc1ccc(O)cc1)NC(=O)[C@H](C(C)C)NC(=O)[C@H](CCC(=O)O)NC3=O)C(=O)N2` (stereo not given in full) ([ξpGlu]WCAEEGESCEVYPCCDGLICYPTFPEPICGV-OH; disulfide 3-16, 10-21, 15-30), for which the Activity result in [1] and in data set [3] was “Non-toxic” each time. The Stability result is “Unstable” in data set [6]; “Stable” in data set [8]; “Stable” in data set [9]; “Stable” in [10]; “Stable” in [11]; “Stable” in data set [12]. For the same compound, the Stability result in data set [13] is recorded as “Stable”.
